pEC50, pIC50: −log10 of the molar value. Where two headings read alike, the source gives them in different places.
Experiments:
[1] = target: T1, HCV NS5B RdRp genotype 1b (Hepatitis C virus genotype 1b, UniProt Q9WMX2); assay: Modified HCV NS5B RdRp enzyme assay (preincubation protocol); assay type: biochemical
T1 construct: The protein was expressed with an 18 amino acid C-terminal truncation to enhance the solubility; made in house; host or cells: E. coli BL21(DE3), pET21a
Protocol: HCV NS5B RdRp cloning, expression, and purification. The cDNA encoding the NS5B protein of HCV, genotype 1b, was cloned into the pET21a expression vector. The protein was expressed with an 18 amino acid C-terminal truncation to enhance the solubility. The E. coli competent cell line BL21(DE3) was used for expression of the protein. Cultures were grown at 37° C. for ˜4 hours until the cultures reached an optical density of 2.0 at 600 nm. The cultures were cooled to 20° C. and induced with 1 mM IPTG. Fresh ampicillin was added to a final concentration of 50 μg/ml and the cells were grown overnight at 20° C.
Cell pellets (3 L) were lysed for purification to yield 15-24 mgs of purified NS5B. The lysis buffer consisted of 20 mM Tris-HCl, pH 7.4, 500 mM NaCl, 0.5% triton X-100, 1 mM DTT, 1 mM EDTA, 20% glycerol, 0.5 mg/ml lysozyme, 10 mM MgCl2, 15 ug/ml deoxyribonuclease I, and Complete TM protease inhibitor tablets (Roche). After addition of the lysis buffer, frozen cell pellets were resuspended using a tissue homogenizer. To reduce the viscosity of the sample, aliquots of the lysate were sonicated on ice using a microtip attached to a Branson sonicator. The sonicated lysate was centrifuged at 100,000×g for 1 hr at 4° C. and filtered through a 0.2 μm filter unit (Corning).
The protein was purified using two sequential chromatography steps: Heparin sepharose CL-6B and polyu sepharose 4B (Pharmacia). The chromatography buffers were identical to the lysis buffer but contained no lysozyme, deoxyribonuclease I, MgCl2 or protease inhibitor and the NaCl concentration of the buffer was adjusted according to the requirements for charging the protein onto the column. Each column was eluted with a NaCl gradient which varied in length from 5-50 column volumes depending on the column type. After the final chromatography step, the resulting purity of the enzyme is >90% based on SDS-PAGE analysis. The enzyme was aliquoted and stored at −80° C.
Standard HCV NS5B RdRp enzyme assay. HCV RdRp genotype 1b assays were run in a final volume of 60 μl in 96 well plates (Corning 3600). The assay buffer is composed of 20 mM Hepes, pH 7.5, 2.5 mM KCl, 2.5 mM MgCl2, 1 mM DTT, 1.6 U RNAse inhibitor (Promega N2515), 0.01 mg/ml BSA (Sigma B6917), and 2% glycerol. All compounds were serially diluted (3-fold) in DMSO and diluted further in water such that the final concentration of DMSO in the assay was 2%. HCV RdRp genotype 1b enzyme was used at a final concentration of 28 nM. A polyA template was used at 6 nM, and a biotinylated oligo-dT 12 primer was used at 180 nM final concentration. Template was obtained commercially (Amersham 27-4110). Biotinylated primer was prepared by Sigma Genosys. 3H-UTP was used at 0.6 μCi (0.29 μM total UTP). Reactions were initiated by the addition of enzyme, incubated at 30° C. for 60 min, and stopped by adding 25 μl of 50 mM EDTA containing SPA beads (4 μg/μl, Amersham RPNQ 0007). Plates were read on a Packard Top Count NXT after >1 hr incubation at room temperature.
Modified HCV NS5B RdRp enzyme assay. A modified enzyme assay was performed essentially as described for the standard enzyme assay except for the following: The biotinylated oligo dT12 primer was precaptured on streptavidin-coated SPA beads by mixing primer and beads in assay buffer and incubating at room temperature for one hour. Unbound primer was removed after centrifugation. The primer-bound beads were resuspended in 20 mM Hepes buffer, pH 7.5 and used in the assay at final concentrations of 20 nM primer and 0.67 μg/μl beads. Order of addition in the assay: enzyme (1.75 nM) was added to diluted compound followed by the addition of a mixture of template (0.36 nM), 3H-UTP (0.6 μCi, 0.29 μM), and primer-bound beads, to initiate the reaction; concentrations given are final. Reactions were allowed to proceed for 4 hours at 30° C.
IC50 values for compounds were determined using seven different [I]. […]

HCV replicon cells = assay: HCV replicon FRET assay; assay type: cell-based; settings: Hepatitis C virus
Protocol: FRET Assay Preparation. The HCV FRET screening assay was performed in 96-well cell culture plates. The FRET peptide (Anaspec, Inc.) (Taliani et al., Anal. Biochem. 1996, 240, 60-67) contains a fluorescence donor, EDANS, near one end of the peptide and an acceptor, DABCYL, near the other end. The fluorescence of the peptide is quenched by […] resonance energy transfer (RET) between the donor and the acceptor, but as the NS3 protease cleaves the peptide the products are released from RET quenching and the fluorescence of the donor becomes apparent. The assay reagent was made as follows: 5× cell Luciferase cell culture lysis reagent from Promega (#E153A) diluted to 1× with dH2O, NaCl added to 150 mM final, the FRET peptide diluted to 20 μM final from a 2 mM stock.
To prepare plates, HCV replicon cells, with or without a Renilla luciferase reporter gene, were trypsinized and plated in a 96-well plate with titrated test compounds added in columns 3 through 12; columns 1 and 2 contained a control compound (HCV control inhibitor), and the bottom row contained cells with DMSO only. The plates were then placed in a CO2 incubator at 37° C.
Assays. Subsequent to addition of the test compounds described above (FRET Assay Preparation), at various times the plate was removed and Alamar blue solution (Trek Diagnostics, #00-100) was added to measure cellular toxicity. After reading in a Cytoflour 4000 instrument (PE Biosystems), plates were rinsed with PBS and then used for FRET assay by the addition of 30 ul of the FRET peptide assay reagent described above (FRET Assay Preparation) per well. The plate was then placed into the Cytoflour 4000 instrument which had been set to 340 excite/490 emission, automatic mode for up to 20 cycles and the plate read in a kinetic mode. Typically, the signal to noise using an endpoint analysis after the reads was at least three-fold. Alternatively, after Alamar blue reading, plates were rinsed with PBS, then used for luciferase assay using the Promega Dual-Glo Luciferase Assay System or the Promega EnduRen Live Cell Substrate assay.
Compound analysis was performed by quantification of the relative HCV replicon inhibition and the relative cytotoxicity values. To calculate cytoxicity values, the average Alamar Blue fluorescence signals from the control wells were set as 100% non-toxic. The individual signals in each of the compound test wells were then divided by the average control signal and multiplied by 100% to determine […]. To calculate the HCV replicon inhibition values, an average background value was obtained from the two wells containing the highest amount of HCV control inhibitor at the end of the assay period. These numbers were similar to those obtained from naïve Huh-7 cells. The background numbers were then subtracted from the average signal obtained from the control wells and this number was used as 100% activity. The individual signals in each of the compound test wells were then divided by the averaged control values after background subtraction and multiplied by 100% to determine percent activity. EC50 values were calculated as the concentration which caused a 50% reduction in FRET or luciferase activity. The two numbers generated for the compound plate, percent cytoxicity and percent activity, were used to determine compounds of interest for further analysis.

[2] = HCV NS5B RdRp, determined using the preincubation protocol, read-out: IC50
[3] = HCV replicon cells, determined using the FRET assay, read-out: EC50

T1 sequence (Q9WMX2 2420-2992): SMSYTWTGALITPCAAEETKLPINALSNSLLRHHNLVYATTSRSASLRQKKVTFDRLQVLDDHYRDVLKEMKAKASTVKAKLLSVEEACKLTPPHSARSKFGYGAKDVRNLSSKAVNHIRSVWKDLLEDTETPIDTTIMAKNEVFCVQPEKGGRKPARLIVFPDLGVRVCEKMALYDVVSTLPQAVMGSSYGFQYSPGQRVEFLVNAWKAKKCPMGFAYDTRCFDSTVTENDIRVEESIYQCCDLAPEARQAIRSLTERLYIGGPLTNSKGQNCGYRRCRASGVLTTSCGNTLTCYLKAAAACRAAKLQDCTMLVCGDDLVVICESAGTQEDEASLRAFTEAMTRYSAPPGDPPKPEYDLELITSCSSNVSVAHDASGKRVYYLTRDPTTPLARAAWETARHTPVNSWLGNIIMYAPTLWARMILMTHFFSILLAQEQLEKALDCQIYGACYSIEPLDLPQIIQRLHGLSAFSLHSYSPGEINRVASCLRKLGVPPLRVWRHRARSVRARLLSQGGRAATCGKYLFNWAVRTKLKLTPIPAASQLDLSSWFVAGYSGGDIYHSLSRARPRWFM

Row | SMILES | pIC50 [1, 2] | pEC50 (HCV replicon cells; [3]) | pIC50 [1] | pEC50 (HCV replicon cells)
1 | COc1ccc2c(c1)CC(NC(=O)C(=O)N(C)C)Cn1c-2c(C2CCCCC2)c2ccc(C(=O)NS(=O)(=O)N(C)C)cc21 (centres unmarked) | 6.30 to 9.00 | 6.30 to 9.00 | – | –
2 | COc1ccc2c(c1)C1CC1(NC(=O)C(=O)N(C)C)Cn1c-2c(C2CCCCC2)c2ccc(C(=O)NS(=O)(=O)N(C)C)cc21 (centres unmarked) | 6.30 to 9.00 | 6.30 to 9.00 | – | –
3 | COc1ccc2c(c1)C1CC1(NC(=O)C(=O)N1CCOCC1)Cn1c-2c(C2CCCCC2)c2ccc(C(=O)NS(=O)(=O)N(C)C)cc21 (centres unmarked) | 6.30 to 9.00 | 6.30 to 9.00 | – | –
4 | COc1ccc2c(c1)C1CC1(NC(=O)C(=O)N1C3CCC1CN(C)C3)Cn1c-2c(C2CCCCC2)c2ccc(C(=O)NS(=O)(=O)N(C)C)cc21 (centres unmarked) | – | – | 6.30 to 9.00 | 6.30 to 9.00
5 | COC(=O)C(=O)NC12CC1c1cc(OC)ccc1-c1c(C3CCCCC3)c3ccc(C(=O)NS(=O)(=O)N(C)C)cc3n1C2 (centres unmarked) | 6.30 to 9.00 | 6.30 to 9.00 | – | –
6 | COc1ccc2c(c1)C1CC1(NC(=O)C(=O)N1CC(C)N(C)C(C)C1)Cn1c-2c(C2CCCCC2)c2ccc(C(=O)NS(=O)(=O)N(C)C)cc21 (centres unmarked) | 6.30 to 9.00 | 6.30 to 9.00 | – | –
7 | COc1ccc2c(c1)C1CC1(NC(=O)C(=O)N1CCN(C)CC1)Cn1c-2c(C2CCCCC2)c2ccc(C(=O)NS(=O)(=O)N(C)C)cc21 (centres unmarked) | 6.30 to 9.00 | 6.30 to 9.00 | – | –
8 | COc1ccc2c(c1)C1CC1(NC(=O)C(=O)N1C[C@@H](C)N(C)[C@@H](C)C1)Cn1c-2c(C2CCCCC2)c2ccc(C(=O)NS(=O)(=O)N(C)C)cc21 (some centres unmarked) | 6.30 to 9.00 | 6.30 to 9.00 | – | –
9 | COc1ccc2c(c1)C1CC1(NC(=O)C(=O)N1CC(OC)C1)Cn1c-2c(C2CCCCC2)c2ccc(C(=O)NS(=O)(=O)N(C)C)cc21 (centres unmarked) | 6.30 to 9.00 | 6.30 to 9.00 | – | –
10 | COc1ccc2c(c1)[C@@H]1C[C@]1(NC(=O)C(=O)N1CCOCC1c1ccccc1)Cn1c-2c(C2CCCCC2)c2ccc(C(=O)NS(=O)(=O)N(C)C)cc21 (some centres unmarked) | 6.30 to 9.00 | 6.30 to 9.00 | – | –
11 | COc1ccc2c(c1)C1CC1(N(C)C(=O)C(=O)N1CC(OC)C1)Cn1c-2c(C2CCCCC2)c2ccc(C(=O)NS(=O)(=O)N(C)C)cc21 (centres unmarked) | 6.30 to 9.00 | 6.30 to 9.00 | – | –
12 | COc1ccc2c(c1)[C@@H]1C[C@]1(N(C)C(=O)C(=O)N1CCOCC1c1ccccc1)Cn1c-2c(C2CCCCC2)c2ccc(C(=O)NS(=O)(=O)N(C)C)cc21 (some centres unmarked) | 6.30 to 9.00 | 6.30 to 9.00 | – | –
13 | COc1ccc(C2COCCN2C(=O)C(=O)NC23CC2c2cc(OC)ccc2-c2c(C4CCCCC4)c4ccc(C(=O)NS(=O)(=O)N(C)C)cc4n2C3)cc1 (centres unmarked) | 6.30 to 9.00 | 6.30 to 9.00 | – | –
14 | COc1ccc2c(c1)C1CC1(NC(=O)C(=O)N1CCCN(C)CC1)Cn1c-2c(C2CCCCC2)c2ccc(C(=O)NS(=O)(=O)N(C)C)cc21 (centres unmarked) | 6.30 to 9.00 | 6.30 to 9.00 | – | –
15 | COc1ccc2c(c1)C1CC1(NC(=O)C(=O)N1CCN3CCC1CC3)Cn1c-2c(C2CCCCC2)c2ccc(C(=O)NS(=O)(=O)N(C)C)cc21 (centres unmarked) | 6.30 to 9.00 | 6.30 to 9.00 | – | –
16 | COc1ccc2c(c1)CC(NC(=O)C(=O)N1C3CCC1CN(C)C3)Cn1c-2c(C2CCCCC2)c2ccc(C(=O)NS(=O)(=O)N(C)C)cc21 (centres unmarked) | – | – | 6.30 to 9.00 | 6.30 to 9.00
17 | COc1ccc2c(c1)C1CC1(NC(=O)C(=O)N(C)C)Cn1c-2c(C2CCCCC2)c2ccc(C(=O)NS(=O)(=O)C(C)C)cc21 (centres unmarked) | 6.30 to 9.00 | 6.30 to 9.00 | – | –
18 | Cc1ccc2c(c1)C1CC1(NC(=O)C(=O)N(C)C)Cn1c-2c(C2CCCCC2)c2ccc(C(=O)NS(=O)(=O)C3CCC3)cc21 (centres unmarked) | 6.30 to 9.00 | 6.30 to 9.00 | – | –
19 | CCC(C)S(=O)(=O)NC(=O)c1ccc2c(C3CCCCC3)c3n(c2c1)CC1(NC(=O)C(=O)N(C)C)CC1c1cc(OC)ccc1-3 (centres unmarked) | 6.30 to 9.00 | 6.30 to 9.00 | – | –
20 | COc1ccc2c(c1)C1CC1(NC(=O)C(=O)N(C)C)Cn1c-2c(C2CCCCC2)c2ccc(C(=O)NS(=O)(=O)CC(C)(C)C)cc21 (centres unmarked) | 6.30 to 9.00 | 6.30 to 9.00 | – | –
21 | COc1ccc2c(c1)C1CC1(NC(=O)N1C3CCC1CN(C)C3)Cn1c-2c(C2CCCCC2)c2ccc(C(=O)NS(=O)(=O)N(C)C)cc21 (centres unmarked) | – | – | 6.30 to 9.00 | 6.30 to 9.00
22 | COc1ccc2c(c1)C1CC1(NS(=O)(=O)N1CCOCC1)Cn1c-2c(C2CCCCC2)c2ccc(C(=O)NS(=O)(=O)N(C)C)cc21 (centres unmarked) | 6.30 to 9.00 | 6.30 to 9.00 | – | –
23 | COc1ccc(S(=O)(=O)NC23CC2c2cc(OC)ccc2-c2c(C4CCCCC4)c4ccc(C(=O)NS(=O)(=O)N(C)C)cc4n2C3)c(OC)c1 (centres unmarked) | 6.30 to 9.00 | 6.30 to 9.00 | – | –
24 | COc1ccc2c(c1)C1CC1(NC(=O)N1CC3CN(Cc4ccccc4)CC(C1)N3Cc1ccccc1)Cn1c-2c(C2CCCCC2)c2ccc(C(=O)NS(=O)(=O)N(C)C)cc21 (centres unmarked) | – | – | 6.30 to 9.00 | –
25 | COc1ccc2c(c1)[C@@H]1C[C@]1(NC(=O)N1C3CCC1CN(C)C3)Cn1c-2c(C2CCCCC2)c2ccc(C(=O)NS(=O)(=O)N(C)C)cc21 | – | – | 6.30 to 9.00 | 6.30 to 9.00
26 | COc1ccc2c(c1)C1CC1(NS(=O)(=O)C1CCN(C(=O)OCc3ccccc3)CC1)Cn1c-2c(C2CCCCC2)c2ccc(C(=O)NS(=O)(=O)N(C)C)cc21 (centres unmarked) | 6.30 to 9.00 | 6.30 to 9.00 | – | –
27 | COc1ccc2c(c1)C1C[C@@]1(NC(=O)C(=O)N(C)C)Cn1c-2c(C2CCCCC2)c2ccc(C(=O)NS(=O)(=O)N(C)C)cc21 (some centres unmarked) [drawing 37] | – | 6.30 to 9.00 | – | –
28 | COc1ccc2c(c1)[C@H]1C[C@@]1(NC(=O)C(=O)N(C)C)Cn1c-2c(C2CCCCC2)c2ccc(C(=O)NS(=O)(=O)N(C)C)cc21 [drawing 37] | 6.30 to 9.00 | – | – | –

— patent US7541352B2, “Compounds for the treatment of hepatitis C” (Bristol-Myers Squibb Company, priority 2007, dated 2009)
